In ChEMBL document CHEMBL3352524, “Identification of arylsulfonamides as ExoU inhibitors” (Bioorg Med Chem Lett, 2014):

Columns and labels:
[1] = test system: Pseudomonas aeruginosa; experiment: Inhibition of Pseudomonas aeruginosa ExoU expressed in Saccharomyces cerevisiae 14328 harboring pdr1/pdr3 genes assessed as cell death measured as yeast growth recovery at 5 uM after 48 hrs by copper-inducible promoter CUP1 assay; parameters: scale not given: the % may be the effect or the level left
[2] = Toxicity against Saccharomyces cerevisiae 14328 assessed as cell viability at 5 uM after 48 hrs; assay type: organism-based; settings: Saccharomyces cerevisiae 14328 cells, read-out: Activity
[3] = Cytotoxicity against HEK293T cells assessed as cell viability at 5 uM after 48 hrs; assay type: cell-based, HEK-293T; settings: human, read-out: Activity

Structure (SMILES): Cc1cc(C)c(S(=O)(=O)Nc2ccc3c(c2)OCCO3)c(C)c1
- Activity [1]: 60.2%
- viability at 48 h, 5 µM [2]: > 90%
- viability at 48 h, 5 µM [3]: > 90%

Structure (SMILES): O=S(=O)(Nc1ccc2c(c1)OCCO2)c1ccc(C(F)(F)F)cc1
- Activity [1]: 27.6%
- viability at 48 h, 5 µM [2]: > 90%

Structure (SMILES): O=S(=O)(Nc1cccc2ccccc12)c1ccc(C(F)(F)F)cc1
- Activity [1]: 45.4%
- viability at 48 h, 5 µM [2]: > 90%
- viability at 48 h, 5 µM [3]: > 90%

Structure (SMILES): COc1ccc(NS(=O)(=O)c2c(C)cc(C)cc2C)cc1OC
- Activity [1]: 18.5%
- viability at 48 h, 5 µM [2]: > 90%

Structure (SMILES): CCCCCc1ccc(S(=O)(=O)Nc2ccc3c(c2)OCCO3)cc1
- Activity [1]: 9%
- viability at 48 h, 5 µM [2]: > 90%

Structure (SMILES): Cc1cc(C)c(NS(=O)(=O)c2ccc3c(c2)OCCO3)c(C)c1
- Activity [1]: 21%
- viability at 48 h, 5 µM [2]: 89.1%

Structure (SMILES): NC(=O)c1cccc2c1-c1ccccc1C2
- Activity [1]: 84.7%
- viability at 48 h, 5 µM [2]: > 90%
- viability at 48 h, 5 µM [3]: > 90%

Structure (SMILES): Cc1cc(C)c(S(=O)(=O)NCCOc2ccccc2)c(C)c1
- Activity [1]: 23.7%
- viability at 48 h, 5 µM [2]: > 90%

Structure (SMILES): O=S(=O)(Nc1ccc2c(c1)OCCO2)c1ccc2ccccc2c1
- Activity [1]: 36.6%
- viability at 48 h, 5 µM [2]: > 90%
- viability at 48 h, 5 µM [3]: 87.5%

Structure (SMILES): CCCc1ccc(OCCNS(=O)(=O)c2c(C)cc(C)cc2C)cc1
- Activity [1]: 30.6%
- viability at 48 h, 5 µM [2]: 85.2%
- viability at 48 h, 5 µM [3]: 72.3%

Structure (SMILES): CC(C)(C)c1ccc(S(=O)(=O)Nc2ccc3c(c2)OCCO3)cc1
- Activity [1]: 52.2%
- viability at 48 h, 5 µM [2]: > 90%
- viability at 48 h, 5 µM [3]: 87.7%
